# Entries after “also recorded” stand apart in the source; their conditions may differ.
# How the values were obtained:
# [1] = target: T1, D2 I184A^EL2 mutant (Homo sapiens, UniProt P14416, I184A); assay: cell-based; type: cell-based; details: for effect of I184A mutation on β-arrestin2 recruitment: Tango
# [2] = target: T2, D2 dopamine receptor (D2R) (Homo sapiens, UniProt P14416); assay: Bias calculation, Gi/o activity versus β-arrestin2 recruitment; type: cell-based; details: for bias factor: arrestin recruitment over Gi/o signaling, relative to quinpirole
# T2 sequence (P14416 whole entry): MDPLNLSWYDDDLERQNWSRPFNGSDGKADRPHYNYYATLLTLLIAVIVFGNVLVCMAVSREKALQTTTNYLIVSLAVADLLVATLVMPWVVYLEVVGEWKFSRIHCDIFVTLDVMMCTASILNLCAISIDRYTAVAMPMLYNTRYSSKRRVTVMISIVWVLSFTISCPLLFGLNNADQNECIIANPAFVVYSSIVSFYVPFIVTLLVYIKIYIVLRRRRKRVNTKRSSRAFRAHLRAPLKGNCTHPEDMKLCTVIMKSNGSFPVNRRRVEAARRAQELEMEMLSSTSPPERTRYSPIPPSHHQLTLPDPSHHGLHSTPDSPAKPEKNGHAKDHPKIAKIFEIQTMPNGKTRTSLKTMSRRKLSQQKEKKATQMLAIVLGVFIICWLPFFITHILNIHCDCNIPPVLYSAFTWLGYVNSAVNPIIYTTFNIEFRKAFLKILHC
# [3] = target: T2, D2 dopamine receptor (D2R); assay: cell-based; details: for Emax: read-out: D2 Gi/o Emax, D2 wild-type, normalized to quinpirole
# [4] = target: human D2Long (Homo sapiens, UniProt P14416); assay: cell-based; details: for Emax: read-out: D2 β-arrestin2 Emax, D2 wild-type, Tango, normalized to quinpirole
# human D2Long, sequence (P14416 whole entry): as above
# [5] = target: T1, D2 I184A^EL2 mutant; assay: Competitive binding kinetics with [3H] NMSP at I184A mutant
# [6] = test system: β2AR EL2.52 F194 mutants (alanine, leucine, isoleucine); assay: β-arrestin2 recruitment by Tango at β2AR EL2 mutants; type: cell-based
# T1 sequence (P14416 whole entry I184A): as the sequence (P14416 whole entry) above, with I184A counted along it
structure (smiles),measurement,setting,value
"O=C1CCc2ccc(OCCCCN3CCCN(c4cccc(Cl)c4Cl)CC3)nc2N1 [UNC 9975, reference compound]",effect of I184A mutation on β-arrestin2 recruitment,[1],no change in arrestin recruitment efficacy
"Clc1cccc(C2CCN(CCCOc3ccc4scnc4c3)CC2)c1Cl [UNC 9994, reference compound]",effect of I184A mutation on β-arrestin2 recruitment,[1],no change in arrestin recruitment efficacy
"Cc1cc2c(N3CCN(CCCCOc4ccc5c(c4)NC(=O)CC5)CC3)cccc2[nH]1 [compound 6, 7-(4-(4-(2-methyl-1H-indol-4-yl)piperazin-1-yl)butoxy)-3,4-dihydroquinolin-2(1H)-one]",SFSR summary (signaling profile),[2]; Gi/o versus arrestin activity,no preference for arrestin recruitment over G protein activation
same,bias factor,[2],1.3
same,EC50,[1],2.7 nM
same,effect of I184A mutation on β-arrestin2 recruitment,[1],selectively abolishing; also recorded: partial but not complete loss of arrestin recruitment efficacy
same,Emax,[1]; read-out: β-arrestin2 Emax at I184A,40%
same,EC50,[3],0.49 nM
same,Emax,[3],86%
same,EC50,[4],0.62 nM
same,Emax,[4],78%
"Cc1cc2c(N3CCN(CCCCOc4ccc5c(c4)NC(=O)CC5)CC3)cccc2n1C [compound 7, 7-(4-(4-(1,2-Dimethyl-1H-indol-4-yl)piperazin-1-yl)butoxy)-3,4-dihydroquinolin-2(1H)-one]",increase in off-rate at I184A compared to D2R wild-type,[5],6.2 fold
same,increase in on-rate at I184A compared to D2R wild-type,[5],6.7 fold
same,bias factor,[2],20
same,effect of I184A mutation on β-arrestin2 recruitment,[1],almost completely abolishes
same,Emax,[3],60%
same,Emax,[4],78%
"CC(C)NC[C@H](O)c1ccc(O)c(O)c1 [isoproterenol, (−)-isoproterenol bitartrate]",β-arrestin2 recruitment at β2AR EL2 mutants,[6],substantially reduced

# Reference: article PMC5771956 (Nature chemical biology, 2017)
